Laboratory results taken from publication PMC3953482, “Fha Interaction with Phosphothreonine of TssL Activates Type VI Secretion in Agrobacterium tumefaciens” (PLoS Pathogens, 2014).
“Also recorded” adds a separate entry of the source. Non-standard residues stand in square brackets, D forms with d. No end group written: not given here. pT = C[C@@H](OP(=O)(O)O)[C@H](N)C(=O)O

Assays:
Fha7-267^WT = assay: Isothermal titration calorimetry (ITC) of TssL/CHK2 peptides with Fha7-267^WT; assay type: binding, A. tumefaciens; conditions: 25°C, 50 mM Tris-HCl (pH 8.0), 150 mM NaCl, 200 µM protein in cell, 6 mM peptide in syringe, result in words
Text: Because FHA domains are well known to bind to pThr residues specifically [33]–[35], we hypothesized that Fha specifically binds Thr 14-phosphorylated TssL to activate type VI secretion. To test this hypothesis, we first performed isothermal titration calorimetry (ITC) analysis with purified Fha proteins and synthetic phosphorylated- and unphosphorylated TssL N-terminal peptides. Because of the instability of full-length Fha protein purified from E. coli (data not shown), we purified truncated Fha proteins with different lengths for the ITC experiments (Figure S6A). […] The binding affinity was ∼3-fold higher (Kd 0.54±0.07 mM) with a longer phosphorylated TssL peptide (DNPSSWQDLPpTVVEITEESR, p-TssL^20 mer) (Figure 6B). […] (Figure 6C, 6E).
Figure 6 Phosphorylated TssL is a direct binding partner of Fha. Isothermal titration calorimetry (ITC) of specific binding between Fha and TssL peptides. […]
ITC analysis was used to determine the binding affinity and stoichiometry between Fha and TssL T-14 peptide with use of the MicroCal iTC200 system (GE Healthcare) and analyzed with ORIGIN software. […] The titration heat was calculated to eliminate the effect of heat generated from titrating the ligand into buffer. […]

Fha7-309^WT = assay: Isothermal titration calorimetry (ITC) of TssL peptides with Fha7-309^WT; assay type: binding, A. tumefaciens; conditions: 25°C, 50 mM Tris-HCl (pH 8.0), 150 mM NaCl, 200 µM protein in cell, 6 mM peptide in syringe, result in words
Method: ITC analysis was used to determine the binding affinity and stoichiometry between Fha and TssL T-14 peptide with use of the MicroCal iTC200 system (GE Healthcare) and analyzed with ORIGIN software. Truncated His-tagged Fha^7–267 and Fha^7–309 proteins were overexpressed and purified from E. coli BL21(DE3) as described. The proteins and various synthetic peptides were dissolved in buffer containing 50 mM Tris-HCl (pH 8.0), 150 mM NaCl. Synthetic phosphorylated TssL (DLPpTVVEI, p-TssL^8 mer; DNPSSWQDLPpTVVEITEESR, p-TssL^20 mer), unphosphorylated TssL (DLPTVVEI, TssL^8 mer), and phosphorylated CHK2 (VSpTQEL, p-CHK2^6 mer) peptides, were used to titrate the various Fha^7–267 or Fha^7–309 proteins at 25°C with a total 25 times of injections with 200 µM protein in the sample cell and 6 mM peptide in the injection syringe. The titration heat was calculated to eliminate the effect of heat generated from titrating the ligand into buffer. […]
Supplementary file ppat.1003991.s006.tif: Figure S6 SDS-PAGE analysis of purified Fha proteins and isothermal titration calorimetry (ITC) analysis. […] Five µg of purified Fha proteins (Fha7-267^WT, Fha7-267^R30AS46A, Fha7-309^WT) was analyzed by 12% SDS-PAGE and stained by Coomassie blue to ensure protein purity. […]

[1] = target: Fha7-267^WT (truncated His-tagged Fha with the intact FHA domain) (Agrobacterium tumefaciens C58); assay: ITC; MicroCal iTC200; 200 µM Fha protein in the sample cell, 6 mM peptide in the injection syringe, 25 injections, 25°C, 50 mM Tris-HCl (pH 8.0), 150 mM NaCl; One Set of Sites model with the N value fixed at 1
[2] = target: Fha7-309^WT (longer version of the truncated Fha protein) (Agrobacterium tumefaciens C58); assay: as above

Molecule | equilibrium dissociation constant (Kd), binding not detectable (Fha7-267^WT) | binding affinity, not detectable (Fha7-309^WT) | Kd [1] [µM] | Kd [2] [µM]
DLPTVVEI [TssL^8 mer, synthetic unphosphorylated TssL peptide (DLPTVVEI)] | could not detect the binding affinity; also recorded: Undetectable | undetectable |  | 
VSpTQEL [p-CHK2^6 mer, 6 mer phosphorylated CHK2 peptide (VSpTQEL), control, reference compound] | could not detect the binding affinity; also recorded: Undetectable |  |  | 
DLP[pT]VVEI [8 mer phosphorylated TssL peptide (DLPpTVVEI)] |  |  | 1580 | 2150
DNPSSWQDLP[pT]VVEITEESR [20 mer phosphorylated TssL peptide (…p…)] |  |  | 540 | 
